Tested on: FLAG-tagged SOCS3
Experiment: phosphopeptide affinity chromatography with anti-FLAG Western blot
Type: binding, rat
Details: lysates of HEK293T cells transfected with pMET7-fSOCS3, biotinylated peptides on streptavidin-agarose
Description: Monoclonal anti-FLAG antibody M2 was obtained from Sigma. Mouse recombinant leptin was purchased from R&D Systems. Peptides were synthesized using standard Fmoc-amino-acid solid phase chemistry on an Applied Biosystems Model 431A peptide synthesizer. Biotin was esterified manually following similar procedures as on the synthesizer, and added to the reaction mixture. Incorporation of phosphotyrosine was realized by using a protected Fmoc-tyrosine-phosphobenzylester (Novabiochem). After purification, mass of the peptides was confirmed by mass spectrometry. Sequences of the peptides used were biotin-QRQPSVK(p)Y985ATLVSNDK and biotin-NHREKSVC(p)Y1077LGVTSVNR.
Approximately 10^6 HEK293T cells were lysed in 150 µl 2x loading buffer. After sonication, 30 µl was loaded on a 10% polyacrylamide gel. […] Blotting efficiency was checked using PonceauS staining (Sigma). […] Peptide concentrations were determined by a colorimetric assay using alkaline hydrolysis and a ninhydrine reagent. […]
The interaction sites of SOCS3 with the leptin receptor were confirmed using a biochemical approach. FLAG-tagged SOCS3 was expressed upon transient transfection of pMET7-fSOCS3 in HEK293T cells, and was analyzed for binding to (phospho)-tyrosine containing peptides matching the two motifs within the leptin receptor. […]

biotin-QRQPSVK(p)Y985ATLVSNDK [non-phosphorylated peptide]
binding of SOCS3: did not bind any SOCS3 protein

— patent EP1363949B1, “FUNCTIONAL FRAGMENT OF THE LEPTINE RECEPTOR” (Vlaams Interuniversitair Instituut voor Biotechnologie vzw., priority 2000, dated 2007)
